Measurements from publication PMC3297592, “Metabolism of Phosphatidylinositol 4-Kinase IIIα-Dependent PI4P Is Subverted by HCV and Is Targeted by a 4-Anilino Quinazoline with Antiviral Activity” (PLoS Pathogens, 2012).
pIC50: −log10 of the molar value.

Columns and labels:
Assay in all cases: ADP-Glo kinase assay
Format in all cases: biochemical
[1] = molecular target: T1, PI4KIIIα-CD (catalytic domain of PI4KIIIα) (Homo sapiens, UniProt P42356)
T1 construct: gene PI4KA; catalytic domain from G873 to the natural C-terminus, N-terminal His6 tag (pFastBac HT-B) kept, Sf9 / baculovirus, Ni-Sepharose; primer adds start ATG GGG (MGMMQCVI...); ends ...NDIPY
T1 sequence (P42356 931-2102): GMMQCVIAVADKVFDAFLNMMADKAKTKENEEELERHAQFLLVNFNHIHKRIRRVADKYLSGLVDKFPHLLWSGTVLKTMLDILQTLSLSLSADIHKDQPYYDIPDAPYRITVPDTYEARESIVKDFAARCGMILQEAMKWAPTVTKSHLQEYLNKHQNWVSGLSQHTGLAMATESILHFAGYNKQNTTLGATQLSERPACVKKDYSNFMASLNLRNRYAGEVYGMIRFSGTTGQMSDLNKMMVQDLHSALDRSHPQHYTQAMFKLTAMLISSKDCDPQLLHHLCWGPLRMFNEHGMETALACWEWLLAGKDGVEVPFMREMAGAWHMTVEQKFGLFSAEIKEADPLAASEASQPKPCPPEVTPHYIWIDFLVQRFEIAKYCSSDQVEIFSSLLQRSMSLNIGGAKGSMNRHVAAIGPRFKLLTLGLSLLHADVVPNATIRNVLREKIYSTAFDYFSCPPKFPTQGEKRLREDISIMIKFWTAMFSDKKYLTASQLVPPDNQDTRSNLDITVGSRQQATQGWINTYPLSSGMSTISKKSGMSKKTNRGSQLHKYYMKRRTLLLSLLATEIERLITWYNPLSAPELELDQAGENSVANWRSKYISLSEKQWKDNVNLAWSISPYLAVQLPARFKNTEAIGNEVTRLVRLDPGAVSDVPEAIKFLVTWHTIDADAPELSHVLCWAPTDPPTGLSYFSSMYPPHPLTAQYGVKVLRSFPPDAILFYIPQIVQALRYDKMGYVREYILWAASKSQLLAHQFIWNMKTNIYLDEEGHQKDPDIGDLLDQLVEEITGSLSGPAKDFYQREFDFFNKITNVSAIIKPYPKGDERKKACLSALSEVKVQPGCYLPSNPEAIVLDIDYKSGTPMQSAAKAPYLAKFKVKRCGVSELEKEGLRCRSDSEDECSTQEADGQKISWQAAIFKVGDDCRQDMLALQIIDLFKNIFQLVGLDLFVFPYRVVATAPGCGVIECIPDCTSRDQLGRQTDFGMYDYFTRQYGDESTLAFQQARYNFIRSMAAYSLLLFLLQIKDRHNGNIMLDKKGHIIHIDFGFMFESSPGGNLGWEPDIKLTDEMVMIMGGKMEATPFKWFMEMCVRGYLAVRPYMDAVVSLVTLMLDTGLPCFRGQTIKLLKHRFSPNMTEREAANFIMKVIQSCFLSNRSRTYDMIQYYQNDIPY

PI3Kβ (p110β/p85α) = molecular target: T2, PI3Kβ (p110β/p85α) (Homo sapiens, UniProt P42338)
T2 construct: gene PIK3CB; commercial purified p110β/p85α heterodimer (Millipore); with Phosphatidylinositol 3-kinase regulatory subunit alpha
T2 sequence (P42338 whole entry): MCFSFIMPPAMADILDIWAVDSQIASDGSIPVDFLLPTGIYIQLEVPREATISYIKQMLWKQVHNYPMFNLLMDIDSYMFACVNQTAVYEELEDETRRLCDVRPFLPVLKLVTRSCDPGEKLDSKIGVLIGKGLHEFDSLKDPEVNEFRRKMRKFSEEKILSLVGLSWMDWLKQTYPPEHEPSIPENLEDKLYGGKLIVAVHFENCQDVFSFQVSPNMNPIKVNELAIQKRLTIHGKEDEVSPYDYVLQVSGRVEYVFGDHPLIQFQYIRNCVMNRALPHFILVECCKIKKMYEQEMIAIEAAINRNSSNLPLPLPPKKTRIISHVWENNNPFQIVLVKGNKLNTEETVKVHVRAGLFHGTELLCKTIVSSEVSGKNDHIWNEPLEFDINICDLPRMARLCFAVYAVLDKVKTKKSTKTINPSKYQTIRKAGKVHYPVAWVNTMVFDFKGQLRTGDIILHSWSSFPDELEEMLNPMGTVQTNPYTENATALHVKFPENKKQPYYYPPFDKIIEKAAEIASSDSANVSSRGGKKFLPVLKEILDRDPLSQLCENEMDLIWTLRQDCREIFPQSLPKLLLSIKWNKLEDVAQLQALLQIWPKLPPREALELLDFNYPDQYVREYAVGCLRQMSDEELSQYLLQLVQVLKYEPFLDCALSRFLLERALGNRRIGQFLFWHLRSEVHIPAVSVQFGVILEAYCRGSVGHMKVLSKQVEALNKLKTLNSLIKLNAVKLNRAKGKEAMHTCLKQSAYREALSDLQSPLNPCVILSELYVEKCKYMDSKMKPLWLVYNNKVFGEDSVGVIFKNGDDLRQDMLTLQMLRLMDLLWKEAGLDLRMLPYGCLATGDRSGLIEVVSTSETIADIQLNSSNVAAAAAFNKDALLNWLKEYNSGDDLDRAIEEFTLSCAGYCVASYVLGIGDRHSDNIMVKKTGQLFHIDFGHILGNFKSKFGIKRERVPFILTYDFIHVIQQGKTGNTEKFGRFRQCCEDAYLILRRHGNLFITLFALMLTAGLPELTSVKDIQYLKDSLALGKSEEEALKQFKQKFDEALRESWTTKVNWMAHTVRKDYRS
T2 sequence (P27986 2-724 partner): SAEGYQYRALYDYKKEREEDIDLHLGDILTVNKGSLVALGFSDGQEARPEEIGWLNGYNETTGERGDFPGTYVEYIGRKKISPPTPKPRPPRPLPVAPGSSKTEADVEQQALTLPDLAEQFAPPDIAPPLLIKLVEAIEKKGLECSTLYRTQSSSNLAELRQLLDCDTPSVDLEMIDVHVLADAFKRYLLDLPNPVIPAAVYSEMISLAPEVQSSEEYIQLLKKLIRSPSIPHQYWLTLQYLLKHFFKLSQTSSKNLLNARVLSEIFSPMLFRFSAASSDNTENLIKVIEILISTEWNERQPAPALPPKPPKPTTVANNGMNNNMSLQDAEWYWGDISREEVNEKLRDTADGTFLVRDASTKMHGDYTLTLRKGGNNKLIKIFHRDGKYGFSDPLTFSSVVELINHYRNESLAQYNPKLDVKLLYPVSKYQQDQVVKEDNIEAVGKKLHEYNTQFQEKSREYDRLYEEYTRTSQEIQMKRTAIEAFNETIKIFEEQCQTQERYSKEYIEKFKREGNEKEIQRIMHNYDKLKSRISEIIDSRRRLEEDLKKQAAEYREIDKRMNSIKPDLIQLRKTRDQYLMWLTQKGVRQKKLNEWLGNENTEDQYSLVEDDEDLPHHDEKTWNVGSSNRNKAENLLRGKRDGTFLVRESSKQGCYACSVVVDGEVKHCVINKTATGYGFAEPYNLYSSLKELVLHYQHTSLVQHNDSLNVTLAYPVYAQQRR

PI3Kα (p110α/p85α) = molecular target: T3, PI3Kα (p110α/p85α) (Homo sapiens, UniProt P42336)
T3 construct: gene PIK3CA; commercial purified p110α/p85α heterodimer (Millipore); with Phosphatidylinositol 3-kinase regulatory subunit alpha
T3 sequence (P42336 whole entry): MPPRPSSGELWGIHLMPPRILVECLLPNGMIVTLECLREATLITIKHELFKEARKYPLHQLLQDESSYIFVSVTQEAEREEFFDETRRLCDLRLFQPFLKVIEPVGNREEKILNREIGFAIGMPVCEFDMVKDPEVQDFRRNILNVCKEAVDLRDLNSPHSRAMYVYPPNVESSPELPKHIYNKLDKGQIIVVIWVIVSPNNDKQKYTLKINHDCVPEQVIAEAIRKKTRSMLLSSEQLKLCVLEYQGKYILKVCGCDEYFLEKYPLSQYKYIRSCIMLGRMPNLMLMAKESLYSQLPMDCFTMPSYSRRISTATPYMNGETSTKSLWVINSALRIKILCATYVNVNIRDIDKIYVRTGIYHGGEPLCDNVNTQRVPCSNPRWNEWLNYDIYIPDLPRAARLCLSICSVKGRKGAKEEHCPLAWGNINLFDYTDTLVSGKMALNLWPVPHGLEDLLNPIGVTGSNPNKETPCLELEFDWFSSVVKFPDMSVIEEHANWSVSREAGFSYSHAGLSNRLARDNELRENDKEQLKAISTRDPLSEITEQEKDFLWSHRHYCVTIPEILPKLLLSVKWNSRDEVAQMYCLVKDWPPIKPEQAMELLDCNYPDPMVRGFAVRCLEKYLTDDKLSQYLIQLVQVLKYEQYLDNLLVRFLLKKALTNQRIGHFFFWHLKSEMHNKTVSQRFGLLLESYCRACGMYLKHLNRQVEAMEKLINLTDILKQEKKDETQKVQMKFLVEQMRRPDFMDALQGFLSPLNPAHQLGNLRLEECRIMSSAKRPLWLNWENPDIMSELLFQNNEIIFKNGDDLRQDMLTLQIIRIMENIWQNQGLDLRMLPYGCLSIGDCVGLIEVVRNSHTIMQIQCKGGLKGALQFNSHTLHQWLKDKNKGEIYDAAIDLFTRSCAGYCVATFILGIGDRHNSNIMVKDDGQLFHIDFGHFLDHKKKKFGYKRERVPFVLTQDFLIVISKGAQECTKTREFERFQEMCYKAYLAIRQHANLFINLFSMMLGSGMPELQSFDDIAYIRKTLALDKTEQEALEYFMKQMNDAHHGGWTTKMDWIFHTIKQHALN
T3 sequence (P27986 2-724 partner): as the sequence (P27986 2-724 partner) above

## OCc1ccc(-c2ccc3ncnc(Nc4ccc(N5CCOCC5)cc4)c3c2)o1 [AL-9]
[1]
  pIC50: 6.24
PI3Kβ (p110β/p85α)
  inhibition at 10 µM: 40%
PI3Kα (p110α/p85α)
  pIC50: 5.96
